# Measured values from publication PMC3914206.
# Experiments:
# Assay type in all cases: binding
# panel of 442 kinases [1] = molecular target: T1, panel of 442 kinases (Homo sapiens, UniProt P51817); details: Compound Concentration 10 µM
# T1 construct: purchased KINOMEscan
# T1 sequence (P51817 1-358): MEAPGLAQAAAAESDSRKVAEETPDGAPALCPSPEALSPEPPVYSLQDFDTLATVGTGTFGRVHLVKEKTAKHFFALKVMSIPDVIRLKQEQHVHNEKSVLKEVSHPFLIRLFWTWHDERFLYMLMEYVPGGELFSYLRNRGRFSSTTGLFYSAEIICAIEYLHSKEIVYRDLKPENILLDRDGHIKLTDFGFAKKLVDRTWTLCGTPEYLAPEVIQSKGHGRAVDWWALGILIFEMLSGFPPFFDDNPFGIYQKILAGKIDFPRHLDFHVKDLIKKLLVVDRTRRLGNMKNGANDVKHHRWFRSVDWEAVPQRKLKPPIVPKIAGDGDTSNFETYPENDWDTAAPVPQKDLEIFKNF
# Excerpt: (§1) We assessed the selectivity of members of this scaffold using the KINOMEscan methodology across a near comprehensive panel of 442 kinases [[18,27]].
# panel of 442 kinases [2] = molecular target: T2, panel of 442 kinases (Homo sapiens, UniProt O43353); details: Compound Concentration 10 µM
# T2 construct: purchased KINOMEscan
# Excerpt: as §1
# [3] = molecular target: T3, selected panels of kinases in HeLa and PC3 cell lysates (Homo sapiens, UniProt P21127); experiment: KiNativ chemical proteomics profiling in HeLa and PC3 cell lysates; details: 10 uM; PITSLRE; peptide DLk[…]; proteome PC3; labeling site Lys2
# T3 construct: endogenous in cells; host or cells: HeLa and PC3 cell lysates
# [4] = molecular target: T4, selected panels of kinases in HeLa and PC3 cell lysates (Homo sapiens, UniProt Q9Y6E0); experiment: as above; details: 10 uM; proteome HEL; peptide DIk[…]; labeling site Lys2
# T4 construct: endogenous in cells; host or cells: HeLa and PC3 cell lysates
# panel of 442 kinases [5] = molecular target: T5, panel of 442 kinases (Homo sapiens, UniProt Q9Y6M4); details: Compound Concentration 10 µM
# T5 construct: purchased KINOMEscan
# Excerpt: as §1
# T5 sequence (Q9Y6M4 whole entry): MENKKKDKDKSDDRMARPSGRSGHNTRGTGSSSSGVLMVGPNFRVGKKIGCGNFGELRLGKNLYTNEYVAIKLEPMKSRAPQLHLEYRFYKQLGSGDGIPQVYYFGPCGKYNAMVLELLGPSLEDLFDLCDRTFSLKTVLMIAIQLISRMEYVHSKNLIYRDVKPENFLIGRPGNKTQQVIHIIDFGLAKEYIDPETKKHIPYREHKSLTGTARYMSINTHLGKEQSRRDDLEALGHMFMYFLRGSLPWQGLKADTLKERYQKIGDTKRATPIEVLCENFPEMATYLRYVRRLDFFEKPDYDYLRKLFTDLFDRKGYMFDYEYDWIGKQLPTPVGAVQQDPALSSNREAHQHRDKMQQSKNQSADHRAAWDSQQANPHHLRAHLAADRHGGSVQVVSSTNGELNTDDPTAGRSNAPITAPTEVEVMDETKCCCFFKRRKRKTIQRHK
# T2 sequence (O43353 whole entry): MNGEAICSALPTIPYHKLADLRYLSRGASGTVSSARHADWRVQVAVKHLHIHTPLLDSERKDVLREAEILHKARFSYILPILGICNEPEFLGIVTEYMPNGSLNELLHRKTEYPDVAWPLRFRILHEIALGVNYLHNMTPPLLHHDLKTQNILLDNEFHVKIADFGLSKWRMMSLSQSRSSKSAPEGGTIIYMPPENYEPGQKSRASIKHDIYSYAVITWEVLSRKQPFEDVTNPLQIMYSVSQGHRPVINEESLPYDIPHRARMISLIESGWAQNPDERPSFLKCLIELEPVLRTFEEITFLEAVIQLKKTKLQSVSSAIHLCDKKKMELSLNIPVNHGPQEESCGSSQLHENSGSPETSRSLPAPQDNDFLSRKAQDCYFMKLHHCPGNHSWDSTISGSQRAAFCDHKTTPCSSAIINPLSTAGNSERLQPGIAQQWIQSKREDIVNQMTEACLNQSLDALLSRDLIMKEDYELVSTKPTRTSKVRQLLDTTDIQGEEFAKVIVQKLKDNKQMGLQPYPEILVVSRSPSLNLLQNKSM
# T4 sequence (Q9Y6E0 whole entry): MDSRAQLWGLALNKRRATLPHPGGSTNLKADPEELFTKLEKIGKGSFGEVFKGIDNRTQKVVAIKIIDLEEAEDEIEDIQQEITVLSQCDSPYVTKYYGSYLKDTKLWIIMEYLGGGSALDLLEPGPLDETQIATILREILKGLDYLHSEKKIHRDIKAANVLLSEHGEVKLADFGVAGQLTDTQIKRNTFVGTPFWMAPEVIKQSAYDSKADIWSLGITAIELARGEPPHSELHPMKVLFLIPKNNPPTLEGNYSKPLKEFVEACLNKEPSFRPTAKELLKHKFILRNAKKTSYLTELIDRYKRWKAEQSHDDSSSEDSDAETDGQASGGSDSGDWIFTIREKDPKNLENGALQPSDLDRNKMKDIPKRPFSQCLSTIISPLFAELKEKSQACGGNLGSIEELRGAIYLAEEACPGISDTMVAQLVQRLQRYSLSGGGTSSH
# T3 sequence (P21127 whole entry): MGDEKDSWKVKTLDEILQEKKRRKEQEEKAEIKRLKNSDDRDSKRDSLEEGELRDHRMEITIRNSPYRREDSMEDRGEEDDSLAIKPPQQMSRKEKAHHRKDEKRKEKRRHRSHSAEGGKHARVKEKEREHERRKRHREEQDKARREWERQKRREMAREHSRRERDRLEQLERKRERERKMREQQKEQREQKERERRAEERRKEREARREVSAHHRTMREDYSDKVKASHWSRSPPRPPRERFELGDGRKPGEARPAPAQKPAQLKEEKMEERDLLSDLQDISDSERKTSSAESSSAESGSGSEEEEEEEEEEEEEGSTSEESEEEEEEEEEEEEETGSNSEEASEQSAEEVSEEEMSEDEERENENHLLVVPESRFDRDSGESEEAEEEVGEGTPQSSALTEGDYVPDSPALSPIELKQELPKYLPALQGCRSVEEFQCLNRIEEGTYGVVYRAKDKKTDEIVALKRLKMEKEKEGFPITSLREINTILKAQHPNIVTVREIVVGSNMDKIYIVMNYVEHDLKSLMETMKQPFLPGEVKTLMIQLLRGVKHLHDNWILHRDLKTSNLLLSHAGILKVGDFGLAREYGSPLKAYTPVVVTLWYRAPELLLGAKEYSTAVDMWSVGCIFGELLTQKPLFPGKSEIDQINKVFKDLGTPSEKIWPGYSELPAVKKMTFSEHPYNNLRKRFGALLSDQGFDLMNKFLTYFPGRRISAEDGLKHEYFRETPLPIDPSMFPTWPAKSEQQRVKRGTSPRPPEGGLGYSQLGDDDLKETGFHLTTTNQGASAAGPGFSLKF
structure (smiles),measurement,setting,value
COc1cc(C(=O)N2CCC(N3CCN(C)CC3)CC2)ccc1Nc1ncc2c(n1)N1CCc3cccc(c31)C(=O)N2C [Compound 24],KINOMEscan: PRKX,panel of 442 kinases [1],87
same,KINOMEscan: RIPK2,panel of 442 kinases [2],95
CCOc1cc(C(=O)N2CCC(N3CCN(C)CC3)CC2)ccc1Nc1ncc2c(n1)N(C1CCCC1)c1ccccc1C(=O)N2C [Compound 26],% Inhibition PITSLRE,[3],3.5%
same,"% Inhibiton, MST3",[4],9.7%
same,KINOMEscan: PRKX,panel of 442 kinases [1],100
same,KINOMEscan: CSNK1G3,panel of 442 kinases [5],91
same,KINOMEscan: RIPK2,panel of 442 kinases [2],100
"COc1cc(C(=O)N2CCC(N3CCN(C)CC3)CC2)ccc1Nc1ncc2c(n1)N(C1CCCC1)c1ccccc1C(=O)N2C [Compound 25, 11-cyclopentyl-2-((2-methoxy-4-(4-(4-methylpiperazin-1-yl)piperidine-1-carbonyl)phenyl)amino)-5-methyl-5H-benzo[e]pyrimido[5,4-b][1,4]diazepin-6(11H)-one]",% Inhibition PITSLRE,[3],5.1%
same,"% Inhibiton, MST3",[4],7.3%
same,KINOMEscan: PRKX,panel of 442 kinases [1],100
same,KINOMEscan: CSNK1G3,panel of 442 kinases [5],96
same,KINOMEscan: RIPK2,panel of 442 kinases [2],87
COc1cc(C(=O)N2CCC(N3CCN(C)CC3)CC2)ccc1Nc1ncc2c(n1)N(C)c1ccccc1C(=O)N2C [15 (LRRK2-IN-1)],KINOMEscan: PRKX,panel of 442 kinases [1],99
same,KINOMEscan: CSNK1G3,panel of 442 kinases [5],93
same,KINOMEscan: RIPK2,panel of 442 kinases [2],100
